Structures can show the parent of a compound that is named as a salt.
Key:
[1] = target: hERG channel (Homo sapiens (Human), UniProt Q12809); experiment: hERG assay using IonWorks Quattro; format: cell-based; settings: IonWorks protocol; read-out: IW hERG IC50
Experimental: Example 127A, Using IonWorks Quattro
Solutions for recording hERG currents were:
This was followed by a […] step of is to −30 mV to evoke the hERG tail current. This sequence was repeated 5 times at a frequency of 0.25 Hz (see FIG. 3). Currents were measured from the tail step at the 5th pulse and referenced to the holding current. Compounds were then incubated for 6-7 minutes prior to a second measurement of the hERG signal using an identical pulse train.

[2] = target: hNav1.5 (Homo sapiens (Human), UniProt Q14524)
Sequence of hNav1.5 (Q14524 whole entry): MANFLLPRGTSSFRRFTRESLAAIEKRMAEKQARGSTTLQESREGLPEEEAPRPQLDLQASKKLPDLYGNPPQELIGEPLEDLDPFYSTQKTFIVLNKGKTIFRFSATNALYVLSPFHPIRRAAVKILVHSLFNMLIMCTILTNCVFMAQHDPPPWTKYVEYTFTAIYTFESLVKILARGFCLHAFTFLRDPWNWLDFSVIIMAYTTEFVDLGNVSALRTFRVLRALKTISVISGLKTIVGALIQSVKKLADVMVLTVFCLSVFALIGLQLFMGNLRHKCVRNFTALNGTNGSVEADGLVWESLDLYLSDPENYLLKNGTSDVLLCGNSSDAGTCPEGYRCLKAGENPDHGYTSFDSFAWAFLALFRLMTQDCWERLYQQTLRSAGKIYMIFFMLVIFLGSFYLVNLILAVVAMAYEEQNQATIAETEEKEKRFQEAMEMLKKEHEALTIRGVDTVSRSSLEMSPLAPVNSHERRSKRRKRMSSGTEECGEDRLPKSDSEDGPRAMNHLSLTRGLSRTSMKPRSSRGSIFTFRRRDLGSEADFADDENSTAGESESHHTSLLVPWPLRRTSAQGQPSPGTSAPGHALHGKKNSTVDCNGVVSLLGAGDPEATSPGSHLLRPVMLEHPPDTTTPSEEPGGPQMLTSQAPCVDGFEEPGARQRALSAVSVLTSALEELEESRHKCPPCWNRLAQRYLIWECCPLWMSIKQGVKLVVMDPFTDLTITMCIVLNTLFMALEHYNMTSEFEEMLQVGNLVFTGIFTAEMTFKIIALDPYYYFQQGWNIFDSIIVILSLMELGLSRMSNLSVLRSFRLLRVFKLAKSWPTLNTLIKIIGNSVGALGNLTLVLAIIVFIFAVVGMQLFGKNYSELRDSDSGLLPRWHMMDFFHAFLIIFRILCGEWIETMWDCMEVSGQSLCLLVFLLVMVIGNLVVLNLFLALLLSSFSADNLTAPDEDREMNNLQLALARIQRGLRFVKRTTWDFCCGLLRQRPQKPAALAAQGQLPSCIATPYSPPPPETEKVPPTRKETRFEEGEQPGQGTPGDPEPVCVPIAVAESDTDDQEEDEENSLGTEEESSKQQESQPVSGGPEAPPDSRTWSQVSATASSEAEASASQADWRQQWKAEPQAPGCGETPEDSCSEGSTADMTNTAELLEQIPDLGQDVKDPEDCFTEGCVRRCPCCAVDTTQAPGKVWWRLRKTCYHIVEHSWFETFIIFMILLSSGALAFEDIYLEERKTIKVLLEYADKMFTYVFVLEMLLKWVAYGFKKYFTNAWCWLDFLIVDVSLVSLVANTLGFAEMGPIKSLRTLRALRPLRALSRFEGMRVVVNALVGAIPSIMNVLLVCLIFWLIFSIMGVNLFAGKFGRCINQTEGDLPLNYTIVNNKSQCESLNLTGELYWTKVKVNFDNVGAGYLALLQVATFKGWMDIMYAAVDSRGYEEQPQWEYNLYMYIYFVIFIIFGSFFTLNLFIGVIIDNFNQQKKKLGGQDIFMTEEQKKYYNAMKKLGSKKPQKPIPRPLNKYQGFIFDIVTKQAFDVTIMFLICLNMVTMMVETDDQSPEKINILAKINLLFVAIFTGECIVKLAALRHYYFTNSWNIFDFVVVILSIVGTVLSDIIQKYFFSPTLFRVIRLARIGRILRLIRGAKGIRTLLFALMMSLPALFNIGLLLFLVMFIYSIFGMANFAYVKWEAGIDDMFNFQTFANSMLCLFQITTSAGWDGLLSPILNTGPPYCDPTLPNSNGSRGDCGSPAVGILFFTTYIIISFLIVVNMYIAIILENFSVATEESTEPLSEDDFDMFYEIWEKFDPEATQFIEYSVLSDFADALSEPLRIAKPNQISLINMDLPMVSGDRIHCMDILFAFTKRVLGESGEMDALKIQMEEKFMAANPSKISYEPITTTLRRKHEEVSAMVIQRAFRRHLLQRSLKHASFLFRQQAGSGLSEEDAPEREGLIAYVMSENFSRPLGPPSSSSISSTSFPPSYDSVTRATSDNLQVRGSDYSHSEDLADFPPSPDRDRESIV
Experimental: Solutions for recording Nav1.5 currents were:
Electrophysiological recordings were made from a human embryonic kidney (HEK) cell line stably expressing the full length hNav1.5. Population patch clamp measurements were made in the perforated patch clamp configuration (100 μg ml^−1 amphotericin) at room temperature (approx. 22° C.) using an IonWorks Quattro from Molecular Devices. […] Currents were first measured under control (pre-compound addition) conditions. […] Currents were measured from the depolarising step at the 15th pulse and referenced to the holding current.

[3] = target: HCN4 (Homo sapiens (Human), UniProt Q9Y3Q4); experiment: HCN4 current assay using PatchXpress 7000A; format: cell-based; settings: PatchXpress protocol; read-out: PX HCN4 IC50
Experimental: (§1) Example 126A, Using PatchXpress 7000A
(§2) Solutions for recording HCN currents were:
(§3) The peak inward current measured at the end of the pulse to −110 mV (HCN1 and HCN2) or −130 mV (HCN4) was measured and any leak current subtracted to calculate the HCN current. The HCN current amplitude was measured after each control or compound addition and normalized to the control amplitude (Control A).
(§4) All experiments were performed at room temperature (approximately 22° C.).
(§5) Each test compound concentration was applied to the cell for seven (7) minutes, at which point the next cumulative concentration was applied.

[4] = target: HCN2 (Homo sapiens (Human), UniProt Q9UL51); experiment: HCN2 current assay using PatchXpress 7000A; format: cell-based; settings: PatchXpress protocol; read-out: PX HCN2 IC50
Sequence of HCN2 (Q9UL51 whole entry): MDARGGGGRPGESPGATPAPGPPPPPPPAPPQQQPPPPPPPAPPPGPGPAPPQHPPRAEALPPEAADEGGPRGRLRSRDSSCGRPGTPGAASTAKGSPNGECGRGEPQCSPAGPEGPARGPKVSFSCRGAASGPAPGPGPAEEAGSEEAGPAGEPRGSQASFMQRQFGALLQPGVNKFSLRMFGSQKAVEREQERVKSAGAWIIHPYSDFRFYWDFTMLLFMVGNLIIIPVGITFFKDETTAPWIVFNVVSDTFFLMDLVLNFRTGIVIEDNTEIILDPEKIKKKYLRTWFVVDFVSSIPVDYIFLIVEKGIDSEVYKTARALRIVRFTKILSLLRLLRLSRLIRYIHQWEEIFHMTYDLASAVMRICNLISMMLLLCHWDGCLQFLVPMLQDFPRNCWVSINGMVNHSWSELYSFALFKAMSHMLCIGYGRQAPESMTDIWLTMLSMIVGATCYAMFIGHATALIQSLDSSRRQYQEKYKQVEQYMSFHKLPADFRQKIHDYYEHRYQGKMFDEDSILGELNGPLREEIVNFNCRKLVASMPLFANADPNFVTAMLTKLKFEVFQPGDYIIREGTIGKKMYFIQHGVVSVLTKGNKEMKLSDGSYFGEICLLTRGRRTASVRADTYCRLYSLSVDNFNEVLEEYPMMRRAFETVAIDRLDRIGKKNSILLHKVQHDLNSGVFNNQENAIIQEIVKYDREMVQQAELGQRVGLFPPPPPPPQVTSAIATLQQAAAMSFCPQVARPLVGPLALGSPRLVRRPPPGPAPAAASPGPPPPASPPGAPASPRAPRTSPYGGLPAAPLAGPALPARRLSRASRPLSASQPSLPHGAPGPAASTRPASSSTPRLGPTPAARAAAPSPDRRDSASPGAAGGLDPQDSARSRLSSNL
Experimental: as §1, §2
The membrane voltage was then stepped back to −30 mV for a further 8 seconds.
as §3, §4, §5

Sequence of hERG channel (Q12809 whole entry): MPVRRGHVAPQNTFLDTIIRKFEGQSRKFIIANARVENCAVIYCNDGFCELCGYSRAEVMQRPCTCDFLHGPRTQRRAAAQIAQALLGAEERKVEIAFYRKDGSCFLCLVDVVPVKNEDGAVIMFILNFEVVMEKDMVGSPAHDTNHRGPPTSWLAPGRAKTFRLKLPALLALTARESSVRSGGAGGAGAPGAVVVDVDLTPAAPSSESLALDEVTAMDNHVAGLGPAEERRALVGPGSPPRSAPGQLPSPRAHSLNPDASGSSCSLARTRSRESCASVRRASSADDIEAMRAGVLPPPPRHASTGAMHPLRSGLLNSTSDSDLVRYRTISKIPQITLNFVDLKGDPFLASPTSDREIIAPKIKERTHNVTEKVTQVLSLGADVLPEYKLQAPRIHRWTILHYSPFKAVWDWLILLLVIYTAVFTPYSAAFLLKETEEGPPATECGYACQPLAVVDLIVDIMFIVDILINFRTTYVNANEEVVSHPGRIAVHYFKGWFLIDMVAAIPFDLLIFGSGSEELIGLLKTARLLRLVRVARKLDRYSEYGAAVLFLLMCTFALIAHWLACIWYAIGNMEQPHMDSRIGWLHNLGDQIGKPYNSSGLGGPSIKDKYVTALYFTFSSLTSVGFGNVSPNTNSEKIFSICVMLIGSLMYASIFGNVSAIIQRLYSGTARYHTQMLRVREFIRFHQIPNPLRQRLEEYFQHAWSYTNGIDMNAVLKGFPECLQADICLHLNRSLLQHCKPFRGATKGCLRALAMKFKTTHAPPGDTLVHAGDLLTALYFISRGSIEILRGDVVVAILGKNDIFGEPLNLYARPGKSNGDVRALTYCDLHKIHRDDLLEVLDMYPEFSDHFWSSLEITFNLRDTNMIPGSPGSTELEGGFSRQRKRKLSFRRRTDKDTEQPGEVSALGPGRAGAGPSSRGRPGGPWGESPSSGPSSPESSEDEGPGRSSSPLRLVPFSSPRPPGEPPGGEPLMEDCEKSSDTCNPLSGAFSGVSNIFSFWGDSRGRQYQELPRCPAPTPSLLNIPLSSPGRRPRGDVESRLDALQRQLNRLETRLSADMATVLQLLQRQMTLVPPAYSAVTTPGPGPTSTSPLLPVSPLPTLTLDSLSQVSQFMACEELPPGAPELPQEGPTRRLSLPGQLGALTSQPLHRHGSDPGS

Row | SMILES | IC50 [1] | IC50 [2] | IC50 [3] | IC50 [4]
1 | Cc1ccc2c(-c3ccccc3[C@@H](N)Cc3ccccn3)noc2c1 [Example 33, (S)-1-[2-(6-Methylbenzo[d]isoxazol-3-yl)phenyl]-2-(pyridine-2-yl)ethan-1-amine] | 4.4 µM | 8.8 µM | > 30 µM | 1.7 µM
2 | N[C@@H](Cc1ccccn1)c1ccccc1-c1noc2cc(CCO)ccc12 [Example 40, (S)-1-[2-(6-[2-Hydroxyethyl]benzo[d]isoxazol-3-yl)phenyl]-2-(pyridine-2-yl)ethan-1-amine] | 7.8 µM | > 33 µM | – | 15.6 µM
3 | N[C@@H](Cc1cccc(Br)n1)c1ccccc1-c1noc2ccccc12 [Example 44, (S)-1-[2-(benzo[d]isoxazol-3-yl)phenyl]-2-(6-bromopyridine-2-yl)ethan-1-amine] | 12.8 µM | 3.7 µM | 7.2 µM | 1.2 µM
4 | CC[C@@H](c1ccccn1)[C@H](N)c1ccccc1-c1noc2ccccc12 [Example 46, (1S,2R)-1-[2-(benzo[d]isoxazol-3-yl)phenyl]-2-(pyridin-2-yl)butan-1-amine hydrochloride] | 8.2 µM | 1.3 µM | > 30 µM | 3 µM
5 | Cc1cccnc1C[C@H](N)c1ccccc1-c1noc2ccccc12 [Example 47, (S)-1-[2-(Benzo[d]isoxazol-3-yl)phenyl]-2-(3-methylpyridine-2-yl)ethan-1-amine hydrochloride] | 2.8 µM | 5.8 µM | > 30 µM | 0.6 µM
6 | CC(C)C(c1ccccn1)[C@H](N)c1ccccc1-c1noc2ccccc12 (stereo partly drawn) [Example 48, (S)-1-[2-(Benzo[d]isoxazol-3-yl)phenyl]-3-methyl-2-(pyridine-2-yl)butan-1-amine hydrochloride] | 16 µM | 5.3 µM | > 30 µM | 5.4 µM
7 | CC(C)(c1ccccn1)[C@H](N)c1ccccc1-c1noc2ccccc12 [Example 49, (R)-1-[2-(Benzo[d]isoxazol-3-yl)phenyl]-2-methyl-2-(pyridine-2-yl)propane-1-amine hydrochloride] | 5.2 µM | 3.8 µM | 22.6 µM | 6.5 µM
8 | COCCNc1cccc(C[C@H](N)c2ccccc2-c2noc3ccccc23)n1 [Example 52, (S)-6-{2-Amino-2-[2-(benzo[d]isoxazol-3-yl)phenyl]ethyl}-N-(2-methoxyethyl)pyridin-2-amine hydrochloride] | 1.2 µM | 1.6 µM | 6 µM | 1.6 µM
9 | Cc1cccc(C[C@H](N)c2ccccc2-c2nn(C)c3ccccc23)n1 [Example 61, (S)-1-[2-(1-Methyl-1H-indazole-3-yl)phenyl]-2-(6-methylpyridine-2-yl)ethan-1-amine hydrochloride] | 0.46 µM | 6.7 µM | > 30 µM | 3.5 µM
10 | N[C@@H](Cc1cccc(C(F)(F)F)n1)c1ccccc1-c1noc2ccccc12 [Example 62, (S)-1-[2-(Benzo[d]isoxazol-3-yl)phenyl]-2-(6-trifluoromethylpyridin-2-yl)ethan-1-amine hydrochloride] | 3.2 µM | 3.8 µM | 19.2 µM | 0.7 µM
11 | N[C@@H](Cc1nc(-c2cn[nH]c2)ccc1F)c1ccccc1-c1noc2ccccc12 [Example 78, (S)-1-[2-(Benzo[d]isoxazol-3-yl)phenyl]-2-[3-fluoro-6-(1H-pyrazol-4-yl)pyridin-2-yl)ethan-1-amine hydrochloride] | 7.6 µM | 6.4 µM | 8.3 µM | –
12 | N#Cc1cccc(C[C@H](N)c2c(F)cccc2-c2noc3ccccc23)n1 [Example 110, (S)-6-{2-Amino-2-[2-(benzo[d]isoxazol-3-yl)-6-fluorophenyl]ethyl}-2-cyanopyridine hydrochloride] | – | > 33 µM | 15.1 µM | 2.6 µM

— patent US20240190854A1, “PYRIMIDINE OR PYRIDINE DERIVATIVES USEFUL AS HCN2 MODULATORS” (King's College London, priority 2021, published 2024)
